Measurements published in patent US11492335B2, “Aryl or heteroaryl triazolone derivatives or salts thereof, or pharmaceutical compositions comprising the same” (YUHAN CORPORATION, priority 2018, dated 2022).
Structures can show the parent of a compound that is named as a salt.

Assays:
Assay type in all cases: biochemical
[1] = molecular target: T1, recombinant human VAP-1 (Homo sapiens, UniProt Q16853); experiment: Activity on recombinant human VAP-1, Amplex Red HRP-coupled hydrogen peroxide assay, benzylamine substrate; settings: recombinant human VAP-1, benzylamine substrate, 30 min preincubation at 37° C.; read-out: Inhibitory Activity (IC50, nM) human VAP-1
T1 construct: purchased R&D systems
T1 sequence (Q16853 1-763): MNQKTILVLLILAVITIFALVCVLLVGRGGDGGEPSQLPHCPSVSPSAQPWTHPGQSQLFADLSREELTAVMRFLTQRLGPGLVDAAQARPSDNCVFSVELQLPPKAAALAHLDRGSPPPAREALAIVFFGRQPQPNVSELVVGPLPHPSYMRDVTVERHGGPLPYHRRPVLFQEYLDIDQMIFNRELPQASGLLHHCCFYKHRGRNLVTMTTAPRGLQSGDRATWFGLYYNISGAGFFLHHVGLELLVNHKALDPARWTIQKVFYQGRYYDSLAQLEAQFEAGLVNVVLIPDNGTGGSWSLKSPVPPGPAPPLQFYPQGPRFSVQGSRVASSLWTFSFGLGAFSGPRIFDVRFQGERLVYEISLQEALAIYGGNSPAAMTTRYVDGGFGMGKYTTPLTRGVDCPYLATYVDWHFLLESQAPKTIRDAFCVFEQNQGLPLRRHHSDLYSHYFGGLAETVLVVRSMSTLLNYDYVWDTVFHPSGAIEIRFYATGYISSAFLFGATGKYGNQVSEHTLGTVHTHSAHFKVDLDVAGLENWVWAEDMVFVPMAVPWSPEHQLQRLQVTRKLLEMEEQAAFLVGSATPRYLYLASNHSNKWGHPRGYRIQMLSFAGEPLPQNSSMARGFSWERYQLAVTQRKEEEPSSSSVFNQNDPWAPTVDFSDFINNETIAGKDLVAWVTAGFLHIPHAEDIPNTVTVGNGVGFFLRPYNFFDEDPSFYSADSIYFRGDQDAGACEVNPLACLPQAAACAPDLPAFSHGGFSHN
In short: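 Compounds were preincubated with purified enzyme in 50 mM sodium phosphate pH 7.4 at 37 °C for 30 min, then 200 uM Amplex Red, 1 mM benzylamine and 1 U/mL HRP were added. Resorufin fluorescence (ex 544/em 590 nm) was followed over 1-2 h; IC50 came from 4-parameter fits of signal-rate inhibition.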

[2] = molecular target: T2, recombinant human MAO-A (monoamine oxidase-A) (Homo sapiens, UniProt P21397); experiment: Activity on recombinant human MAO-A, Amplex Red method, 0.5 mM tyramine substrate; settings: 0.5 mM tyramine, read-out: Inhibitory Activity (IC50, nM) MAO-A
T2 construct: purchased Sigma-Aldrich
T2 sequence (P21397 1-527): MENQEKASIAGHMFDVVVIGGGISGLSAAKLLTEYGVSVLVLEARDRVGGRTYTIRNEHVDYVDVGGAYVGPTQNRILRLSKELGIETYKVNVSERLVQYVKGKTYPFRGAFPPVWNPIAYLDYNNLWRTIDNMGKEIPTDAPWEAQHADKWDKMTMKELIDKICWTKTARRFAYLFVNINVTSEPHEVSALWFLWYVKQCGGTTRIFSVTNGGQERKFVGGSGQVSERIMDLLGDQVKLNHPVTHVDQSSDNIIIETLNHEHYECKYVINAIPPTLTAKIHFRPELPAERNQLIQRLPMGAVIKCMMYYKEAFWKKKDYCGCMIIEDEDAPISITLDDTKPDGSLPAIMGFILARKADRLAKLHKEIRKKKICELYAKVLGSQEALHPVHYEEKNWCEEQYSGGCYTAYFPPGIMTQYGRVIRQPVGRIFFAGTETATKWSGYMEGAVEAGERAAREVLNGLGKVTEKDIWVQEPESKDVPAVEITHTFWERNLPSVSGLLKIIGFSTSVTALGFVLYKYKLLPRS
Procedure: The compounds according to the present technology were evaluated in terms of activity on recombinant human VAP-1 (R&D systems) by measuring the level of hydrogen peroxide in horseradish peroxidase (HRP)-coupled reaction using Amplex Red Hydrogen Peroxide Assay Kit (Molecular Probes, Invitrogen, USA). The experiment was carried out at room temperature using benzylamine as a substrate. In the HRP-coupled reaction, hydrogen peroxide oxidation of 10-acetyl-3,7-dihydroxyphenoxazine (Amplex Red reagent) produces resorufin, which is a highly fluorescent compound. Briefly, the test compound was dissolved in dimethyl sulfoxide (DMSO) at a concentration of 20 mM. The dose-response assessment was made by 1:3 serial dilution in DMSO, thereby creating an 8 point curve. The concentration of the upper part was controlled according to the efficacy of the compounds, followed by dilution with a reaction buffer solution to obtain a final DMSO concentration less than 1%. To each well of a 96 black well plate, human VAP-1 purified in 50 mM sodium phosphate buffer solution (pH7.4) was added. The test compounds dissolved in DMSO were incubated with the human VAP-1 enzymes at 37° C. for 30 minutes. After 30-minute incubation, each well is added with a reaction mixture containing 200 uM Amplex Red reagent prepared from 50 mM sodium phosphate buffer solution (pH 7.4), 1 mM benzylamine, and 1 U/mL HRP. Fluorescence intensity was measured at several time points during 1-2 hours using a microplate reader (Flexstation3, Molecular Devices) under the wavelength condition exciting at 544 nm and reading the emission at 590 nm. The inhibitory effect of the compounds was measured as a decrease (%) in the signal rate as compared to the control group without any inhibitor (only diluted DMSO). Data was fixed to a logistic model with four variables and IC50 value was calculated using GraphPad Prism program.
In addition, the compounds according to the present technology were evaluated in terms of activity on a recombinant human MAO-A (monoamine oxidase-A, Sigma-Aldrich) and a recombinant human MAO-B (monoamine oxidase-B, Sigma-Aldrich) by using as substrates, 0.5 mM tyramine and 1 mM benzylamine, respectively, with a method similar to the activity evaluation method for recombinant human VAP-1. The compounds according to the present technology were also evaluated in terms of activity on a recombinant human DAO (diamine oxidase, R&D systems) by using as a substrate 1 mM putrescine with a method similar to the activity evaluation method for recombinant human VAP-1.

[3] = molecular target: T3, recombinant human MAO-B (monoamine oxidase-B) (Homo sapiens, UniProt P27338); experiment: Activity on recombinant human MAO-B, Amplex Red method, 1 mM benzylamine substrate; settings: 1 mM benzylamine, read-out: Inhibitory Activity (IC50, nM) MAO-B
T3 construct: purchased Sigma-Aldrich
T3 sequence (P27338 1-520): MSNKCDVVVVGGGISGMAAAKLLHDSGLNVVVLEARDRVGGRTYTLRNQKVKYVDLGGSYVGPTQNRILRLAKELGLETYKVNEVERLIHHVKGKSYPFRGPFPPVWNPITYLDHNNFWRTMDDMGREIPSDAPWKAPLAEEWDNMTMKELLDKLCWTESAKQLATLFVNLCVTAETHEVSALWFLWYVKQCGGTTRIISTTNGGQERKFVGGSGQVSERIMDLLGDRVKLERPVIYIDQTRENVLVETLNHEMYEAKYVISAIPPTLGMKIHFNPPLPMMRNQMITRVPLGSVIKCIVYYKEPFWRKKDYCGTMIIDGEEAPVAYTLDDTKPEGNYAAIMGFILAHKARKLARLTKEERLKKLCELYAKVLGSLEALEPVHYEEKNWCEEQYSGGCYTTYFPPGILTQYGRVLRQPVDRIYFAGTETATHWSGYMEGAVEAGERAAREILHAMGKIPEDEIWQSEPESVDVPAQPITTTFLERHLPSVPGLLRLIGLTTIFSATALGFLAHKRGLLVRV
In short: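 8-point, 1:3 dose-response, four-parameter logistic IC50 from reduction in fluorescence rate versus DMSO control. HRP/Amplex Red detection of H2O2 (ex 544, em 590 nm) after 30 min, 37 °C compound–enzyme preincubation in pH 7.4 phosphate buffer. MAO-A substrate: 0.5 mM tyramine; MAO-B: 1 mM benzylamine.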

[4] = molecular target: T4, recombinant human DAO (diamine oxidase) (Homo sapiens, UniProt P19801); experiment: Activity on recombinant human DAO, Amplex Red method, 1 mM putrescine substrate; settings: recombinant human DAO, 1 mM putrescine; * = between 10 and 100 nM, ** = between 300 and 1000 nM; read-out: Inhibitory Activity (IC50, nM) DAO
T4 construct: purchased R&D systems
T4 sequence (P19801 20-751): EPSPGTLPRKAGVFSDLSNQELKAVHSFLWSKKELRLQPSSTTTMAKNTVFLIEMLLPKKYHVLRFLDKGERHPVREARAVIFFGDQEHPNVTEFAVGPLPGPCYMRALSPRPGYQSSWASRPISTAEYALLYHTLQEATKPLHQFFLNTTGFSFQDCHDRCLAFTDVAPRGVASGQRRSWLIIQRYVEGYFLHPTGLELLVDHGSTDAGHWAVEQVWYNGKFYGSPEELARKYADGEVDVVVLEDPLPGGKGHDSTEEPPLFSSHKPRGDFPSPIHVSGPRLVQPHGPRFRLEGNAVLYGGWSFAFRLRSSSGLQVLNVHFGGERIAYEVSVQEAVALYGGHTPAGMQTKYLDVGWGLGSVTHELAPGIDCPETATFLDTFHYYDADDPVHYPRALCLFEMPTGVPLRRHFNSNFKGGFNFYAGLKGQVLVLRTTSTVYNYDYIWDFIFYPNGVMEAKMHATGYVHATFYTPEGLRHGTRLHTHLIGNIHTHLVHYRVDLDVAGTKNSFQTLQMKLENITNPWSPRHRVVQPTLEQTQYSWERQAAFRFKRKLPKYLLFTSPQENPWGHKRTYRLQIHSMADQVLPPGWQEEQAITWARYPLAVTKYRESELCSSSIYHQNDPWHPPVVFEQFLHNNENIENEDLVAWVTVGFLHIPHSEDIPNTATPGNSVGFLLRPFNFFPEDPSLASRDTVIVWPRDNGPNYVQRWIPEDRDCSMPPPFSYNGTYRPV
In short: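 Inhibition of recombinant human DAO (diamine oxidase, R&D systems) was assessed with the Amplex Red Hydrogen Peroxide Assay Kit. Hydrogen peroxide produced from 1 mM putrescine was detected through an HRP-coupled reaction that converts Amplex Red into fluorescent resorufin, read at 544 nm excitation and 590 nm emission. IC50 values came from four-parameter logistic fits in GraphPad Prism.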

SMILES | IC50 [1] [nM] | IC50 [2] [nM] | IC50 [3] [nM] | IC50 [4] [nM]
Cc1cc(Br)cnc1-n1cnn(C/C(=C/F)CN)c1=O [Example 32, 2-[(2E)-2-(aminomethyl)-3-fluoroprop-2-en-1-yl]-4-(5-bromo-3-methylpyridin-2-yl)-2,4-dihydro-3H-1,2,4-triazol-3-one hydrochloride] | 2.2 | 93000 | 51 | > 100000
Cc1cc(-n2cnn(C/C(=C/F)CN)c2=O)ncc1Br [Example 34, 2-[(2E)-2-(aminomethyl)-3-fluoroprop-2-en-1-yl]-4-(5-bromo-4-methylpyridin-2-yl)-2,4-dihydro-3H-1,2,4-triazol-3-one hydrochloride] | 0.6 | 6100 | 363 | 13
NC/C(=C/F)Cn1ncn(-c2ncc(Br)cc2F)c1=O [Example 35, 2-[(2Z)-2-(aminomethyl)-3-fluoroprop-2-en-1-yl]-4-(5-bromo-3-fluoropyridin-2-yl)-2,4-dihydro-3H-1,2,4-triazol-3-one hydrochloride] | 6.6 | 1500 | 503 | 14
NC/C(=C\F)Cn1ncn(-c2ncc(Br)cc2F)c1=O [Example 36, 2-[(2E)-2-(aminomethyl)-3-fluoroprop-2-en-1-yl]-4-(5-bromo-3-fluoropyridin-2-yl)-2,4-dihydro-3H-1,2,4-triazol-3-one hydrochloride] | 1.2 | > 100000 | 3350 | 23

Now from value to compound:

IC50 [1] [nM] | IC50 [2] [nM] | IC50 [3] [nM] | IC50 [4] [nM] | SMILES
2.4 | > 100000 | 2300 | 25 | NC/C(=C\F)Cn1ncn(-c2ccc(Br)nc2)c1=O [Example 25, 2-[(2E)-2-(aminomethyl)-3-fluoroprop-2-en-1-yl]-4-(6-bromopyridin-3-yl)-2,4-dihydro-3H-1,2,4-triazol-3-one hydrochloride]
5.3 | > 100000 | 9.4 | 14 | Cc1cc(-n2cnn(C/C(=C\F)CN)c2=O)cnc1Br [Example 26, 2-[(2Z)-2-(aminomethyl)-3-fluoroprop-2-en-1-yl]-4-(6-bromo-5-methylpyridin-3-yl)-2,4-dihydro-3H-1,2,4-triazol-3-one hydrochloride]
2.5 | > 100000 | 63 | 5.4 | Cc1cc(-n2cnn(C/C(=C/F)CN)c2=O)cnc1Br [Example 27, 2-[(2E)-2-(aminomethyl)-3-fluoroprop-2-en-1-yl]-4-(6-bromo-5-methylpyridin-3-yl)-2,4-dihydro-3H-1,2,4-triazol-3-one hydrochloride]
1.2 | 2600 | 28 | 25 | NC/C(=C/F)Cn1ncn(-c2ccc(Br)cn2)c1=O [Example 29, 2-[(2Z)-2-(aminomethyl)-3-fluoroprop-2-en-1-yl]-4-(5-bromopyridin-2-yl)-2,4-dihydro-3H-1,2,4-triazol-3-one hydrochloride]
0.61 | 1900 | 1700 | 13 | NC/C(=C\F)Cn1ncn(-c2ccc(Br)cn2)c1=O [Example 30, 2-[(2E)-2-(aminomethyl)-3-fluoroprop-2-en-1-yl]-4-(5-bromopyridin-2-yl)-2,4-dihydro-3H-1,2,4-triazol-3-one hydrochloride]
